According to publication PMC6004566 (ACS Medicinal Chemistry Letters, 2018):
One block for each compound: values may come before it.

Columns and labels:
NOTUM [1] = target: T1, NOTUM (Homo sapiens, UniProt Q6P988); assay: Competitive gel-based ABPP; assay type: biochemical; conditions: 10 μM, 30 min pretreatment at 37 °C; CM of WT-NOTUM-transfected HEK293T cells
T1 sequence (Q6P988 20-496): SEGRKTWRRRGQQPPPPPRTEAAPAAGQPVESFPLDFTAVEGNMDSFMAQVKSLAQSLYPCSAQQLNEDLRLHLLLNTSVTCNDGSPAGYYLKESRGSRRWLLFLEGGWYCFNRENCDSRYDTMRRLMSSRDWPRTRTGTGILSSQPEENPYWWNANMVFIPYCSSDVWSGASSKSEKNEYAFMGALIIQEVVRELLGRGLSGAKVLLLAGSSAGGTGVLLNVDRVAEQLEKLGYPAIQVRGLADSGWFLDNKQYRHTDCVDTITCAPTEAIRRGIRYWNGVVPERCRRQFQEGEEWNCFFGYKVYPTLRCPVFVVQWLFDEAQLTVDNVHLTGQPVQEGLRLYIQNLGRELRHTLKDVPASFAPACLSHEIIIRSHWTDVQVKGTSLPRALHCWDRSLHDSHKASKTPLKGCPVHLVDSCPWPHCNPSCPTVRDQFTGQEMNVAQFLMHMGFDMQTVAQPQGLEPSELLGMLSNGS

PPT1 = target: T2, PPT1 (Homo sapiens, UniProt P50897); assay type: cell-based; conditions: SW620 cells in situ 2 h; ABC45 probe 1 µM
T2 sequence (P50897 28-306): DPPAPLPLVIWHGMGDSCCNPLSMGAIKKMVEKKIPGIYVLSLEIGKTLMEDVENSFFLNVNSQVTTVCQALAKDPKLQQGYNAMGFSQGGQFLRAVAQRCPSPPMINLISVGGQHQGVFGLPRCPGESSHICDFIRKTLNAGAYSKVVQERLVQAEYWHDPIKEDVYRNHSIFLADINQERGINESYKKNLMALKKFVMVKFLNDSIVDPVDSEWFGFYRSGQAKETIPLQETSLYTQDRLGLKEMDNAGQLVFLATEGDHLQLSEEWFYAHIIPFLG

serine hydrolases = assay: Competitive gel-based ABPP; assay type: cell-based, human; conditions: SW620 soluble and membrane proteomes, in situ 2 h, 37 °C, FP-Rh
NOTUM [2] = target: T1, NOTUM; assay type: biochemical; conditions: SW620 CM; for inhibitory activity for NOTUM: competitive gel-based ABPP
[3] = tested on: FP-biotin-enriched proteins of SW620 conditioned media; assay: Quantitative MS-based ABPP of SW620 CM; assay type: biochemical, human; conditions: 0.5 and 10 μM; both CM and SW620 in situ treated cells
NOTUM [4] = target: T1, NOTUM; assay: ABC99yne direct labeling; conditions: 0.1 μM probe; CM and cellular lysate of SW620 cells; Rh-N3 click
ABHD6 = target: T3, ABHD6 (Homo sapiens, UniProt Q9BV23); assay: MS-based ABPP, SW620 cells in situ; assay type: cell-based; conditions: 10 µM, Supplementary Figure 3
T3 sequence (Q9BV23 1-337): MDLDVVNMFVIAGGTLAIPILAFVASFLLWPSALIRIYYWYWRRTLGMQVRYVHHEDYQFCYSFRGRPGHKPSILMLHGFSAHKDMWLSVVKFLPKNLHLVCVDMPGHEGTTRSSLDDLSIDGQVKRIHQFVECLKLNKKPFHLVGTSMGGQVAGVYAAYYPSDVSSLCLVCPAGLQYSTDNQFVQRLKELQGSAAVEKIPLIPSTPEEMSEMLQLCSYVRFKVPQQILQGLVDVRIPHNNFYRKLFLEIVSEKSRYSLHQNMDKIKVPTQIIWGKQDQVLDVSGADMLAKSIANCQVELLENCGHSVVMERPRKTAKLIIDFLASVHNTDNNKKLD

FP-Rh reactivity with NOTUM (NOTUM [1]): blocked FP-Rh reactivity with NOTUM
Structure (SMILES): COc1ccc(N2CCN(C(=O)ON3C(=O)C4CN(Cc5ccc(Br)cc5)CCN4C3=O)CC2)cc1 (stereo not drawn) [ABC28]

FP-Rh reactivity with NOTUM (NOTUM [1]): blocked FP-Rh reactivity with NOTUM
Structure (SMILES): O=C1C2CN(Cc3ccc(Oc4ccccc4)nc3)CCN2C(=O)N1OC(=O)N1CCOc2ccccc21 (stereo not drawn) [ABC63]
PPT1 inhibition (PPT1): did not inhibit PPT1 at concentrations up to 10 μM

PPT1 inhibition (PPT1): potent inhibitor of PPT1
Structure (SMILES): COc1ccc(N2CCN(C(=O)ON3C(=O)C4CN(Cc5ccc(Cl)cc5)CCN4C3=O)CC2)cc1 (stereo not drawn) [ABC90]
selectivity across serine hydrolases (serine hydrolases): only a single major site of ABC90 cross reactivity was observed; a 35 kDa protein that we suspected was ABHD6

inhibitory activity for NOTUM (NOTUM [2]): completely lost activity
Structure (SMILES): COc1ccc(N2CCN(C(=O)ON3C(=O)C4CN(Cc5cccc(Cl)c5)CCN4C3=O)CC2)cc1 (stereo not drawn) [ABC91]

Structure (SMILES): O=C1C2CN(Cc3ccc(Cl)cc3)CCN2C(=O)N1OC(=O)N1CCOc2ccccc21 (stereo not drawn) [ABC99]
PPT1 inhibition (PPT1): did not cross-react
cross-reactivity with the 64 additional serine hydrolases quantified by MS-ABPP [3]: virtually no cross-reactivity

IC50 for blockade of FP-Rh reactivity of NOTUM (NOTUM [2]; 30 min, 37 °C): sub-micromolar
Structure (SMILES): C#CCN1CCN(C(=O)ON2C(=O)C3CN(Cc4ccc(Cl)cc4)CCN3C2=O)c2ccccc21 (stereo not drawn) [ABC99yne]
direct labeling selectivity (NOTUM [4]): highly selective labeling of NOTUM with no other cross-reactive proteins observed

Structure (SMILES): O=C(c1ccc(Cl)cc1)N1CCN2C(=O)N(OC(=O)N3CCOc4ccccc43)C(=O)C2C1 (stereo not drawn) [ABC101]
inhibitory activity for NOTUM (NOTUM [2]): lost inhibitory activity for NOTUM
inhibition of ABHD6 (ABHD6): maintained inhibition of ABHD6
